# Laboratory results: PubChem BioAssay (NCI)
#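 96-well plates; 48 h exposure; 5 concentrations. Endpoints by linear interpolation between flanking doses. Not reached: highest tested concentration assigned. Here, GI50 denotes the concentration required for 50% inhibition of growth. The concentration for full growth arrest is given as TGI.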
# System: MDA-MB-468 breast
# Assay: NCI tumour cell line growth inhibition, 48 h
SMILES,GI50,TGI
Oc1c(O)c(Cl)c(Cl)c(Cl)c1Cl,2580 nM,7.34 µM
NCCOc1ncccc1/C=C1\c2ccccc2-c2ccc([N+](=O)[O-])cc21,71.2 nM,0.351 µM
CCOc1ccc(C(C)=O)cc1NC(=O)c1cccc(-c2nnn(CC)n2)c1,557 nM,6.07 µM
O=C(Nc1ccc2c(c1)OCCO2)C(=O)c1c[nH]c2ccccc12,1090 nM,20.7 µM
Nc1ccc(-c2ccc3ncc4ccc(=O)n(-c5cccc(C(F)(F)F)c5)c4c3c2)cn1,< 10 nM,0.0431 µM
COc1ccc2[nH]c(C(=O)OCc3ccc4cccc(O)c4n3)cc2c1,1370 nM,3.08 µM
CCN(CC)c1ccc(/C=N/NC(=O)CSc2nc3ccccc3c(=O)n2Cc2ccc(S(N)(=O)=O)cc2)c(O)c1,524 nM,5.03 µM
CCCCCCNC(=O)Oc1ccc(/C(=C(\C)c2ccc(Cl)cc2)c2ccc(OCCN(C)C)cc2)cc1,1590 nM,3.12 µM
Cc1noc(C)c1-c1cnc2c(-c3ccc(C(=O)O)cc3)cn([C@@H](C)c3ccccn3)c2c1,309 nM,27.2 µM
CN1CCN(CCCOc2cccc3nc(Nc4ccc(F)c(F)c4)ccc23)CC1,2110 nM,6.73 µM
Cc1nc(Sc2nc3ccc([N+](=O)[O-])cc3s2)sc1C,1620 nM,3.59 µM
O=C(/C=C/c1cc(Cl)ccc1Cl)Nc1ncc(Cc2ccc(Cl)cc2)s1,277 nM,3.08 µM
C=C1C(=O)O[C@H]2[C@H]1CC/C(COC(=O)NCCc1cccc(OC)c1)=C\CC[C@@]1(C)O[C@@H]21,850 nM,3.27 µM
O=C(/C=C\n1cnc(-c2cc(C(F)(F)F)cc(C(F)(F)F)c2)n1)N1CC(F)(F)C1,697 nM,6.19 µM
O=C(O)Cn1ccc2ccccc21,> 100000 nM,> 100 µM
CCc1nn2ncccc2c1-c1ccnc(NC2CC2)n1,> 21200 nM,> 25 µM
O=C1Nc2ccccc2/C1=C/c1cn(CC(O)Cn2cc(/C=C3\C(=O)Nc4ccccc43)c3ccccc32)c2ccccc12 (stereo not drawn),2030 nM,3.75 µM
COc1cc(Nc2ncnc(Nc3ccc4c(n3)NC(=O)C(C)(C)O4)n2)cc(OC)c1OC,522 nM,> 100 µM
COc1ccc(-c2nsc3c2NC(=O)CC3c2cccc(Cl)c2)cc1 (stereo not drawn),735 nM,11 µM
CC(C)(C)c1nc(-c2cccc(NS(=O)(=O)c3c(F)cccc3F)c2F)c(-c2ccnc(N)n2)s1,31700 nM,> 100 µM
COc1ccc2c(c1)O/C(=C\c1cccc(OCC(=O)Nc3nc(C)c(C)s3)c1)C2=O,274 nM,2.12 µM

SMILES,GI50,TGI
NC(CSC(c1ccccc1)(c1ccccc1)c1ccc(F)cc1)C(=O)O (stereo not drawn),233 nM,
Cn1cncc1-c1c(F)cncc1NC(=O)c1c(N)nn2cc(F)cnc12,1960 nM,16.2 µM
COc1ccc(-c2nn3ncccc3c2-c2ccnc(Nc3ccc4c(c3)OCCO4)n2)cc1,4000 nM,> 21.1 µM
CCCCN1C(=O)/C(=c2\sc3n(c2=O)C2C(NN=3)N(CC)C(=O)N2CC)c2ccccc21 (stereo not drawn),361 nM,2.39 µM
COc1cc2nc(-c3cccc4cccnc34)nc(NC3CCN(Cc4ccccc4)CC3)c2cc1OC,1430 nM,2.96 µM
CCN(CC)c1ccc2nc3ccc(N=Nc4ccc(O)cc4)cc3[n+](-c3ccccc3)c2c1,1470 nM,3.61 µM
CC/C(Cc1ccccc1)=C(/c1ccc(O)cc1)c1ccc(OCCN2CCCC2)cc1,1660 nM,3.28 µM
CC(=O)O[C@H](C[C@H](C(C)C)N(C)C(=O)[C@@H](NC(=O)[C@H]1CCCCN1C)C(C)C)c1cccc(C(=O)N[C@@H](Cc2ccccc2)C[C@H](C)C(=O)O)n1,5.39 nM,0.102 µM
O=C(Oc1ccccc1)C(Br)C(Br)c1ccccc1 (stereo not drawn),1610 nM,3.37 µM
COc1cc(NC(C)CCCNC(C)C)c2ncccc2c1OC (stereo not drawn),25600 nM,> 100 µM
COc1cc(CN(c2ccc(C)cc2)C2OC(=O)c3ccccc32)cc(OC)c1OC (stereo not drawn),132 nM,0.527 µM
CCc1nc2cc(/C=C/C(=O)NO)ccc2c(=O)n1CCc1ccc(OC)cc1,1690 nM,5.57 µM
C[C@H](NC(=O)c1c(C(F)F)nn(C)c1Oc1cccc(C(F)(F)F)c1)c1ccc(C(=O)O)cc1,> 100000 nM,> 100 µM
Cn1cc(C2=C(c3ccccc3C(F)(F)F)C(=O)NC2=O)c2ccccc21,11600 nM,> 25 µM
COc1cccc(NC(=O)c2sc3nc4c(cc3c2N)C(O)CCC4)c1 (stereo not drawn),88.1 nM,6.7 µM
CCOC(=O)C#Cc1c(C(=O)OCC)nnn1[C@@H]1O[C@H](CO)[C@H]2OC3(CCCCC3)O[C@H]21,1780 nM,3.89 µM
COc1ccc(-c2n[nH]nc2-c2cc(OC)c3c(c2)OCO3)cc1,23 nM,42.6 µM
Cc1c(C)c2c(c(C)c1OCC(=O)O)CC[C@@](C)(CCC[C@@H](C)CCC[C@@H](C)CCCC(C)C)O2,58100 nM,152 µM
COc1cc(-c2nccc3cc4c(cc23)OCO4)cc(OC)c1OC,1620 nM,6.24 µM
COc1cc(-c2cc3ncccc3c3[nH]c(=O)c4cccnc4c23)cc(OC)c1OC,1610 nM,96.1 µM
O=C(CSc1nc2sc3c(c2c(=O)n1-c1ccc(Cl)cc1)CCCC3)NNC(=O)Nc1cccc(C(F)(F)F)c1,2210 nM,5.36 µM
